Source: paper PMC8398231 (Pharmaceutics, 2021)

Key:
[1] = Stability of radiolabeled kit in vehicle (radiochemical purity over time); format: physicochemical; conditions: final formulation (acetate buffer, PBS, 0.9% NaCl)
Protocol: For process validation, the [^68Ga]Ga-RM2 kits were subjected to full quality control. […] Molar activity was calculated after linear regression of the calibration curve with [^natGa]Ga-RM2 (Life Molecular Imaging). The pH was determined using a pH-meter. Volumetric activity was determined by dividing activity obtained by the final volume. The [^68Ga]Ga-RM2 was also subjected to endotoxin testing (Charles Rivers), sterility testing and radionuclidic purity and filter integrity tests. Results were then compared to the production capacity provided by the module route currently running in our NCT03604757 and NCT03606837 studies.
After optimization, ^68Ga radiolabeling of the RM2 kits was carried out in three consecutive batches, and they all complied with the requirements of the monograph of the European Pharmacopoeia (as described for [^68Ga]Ga-edotreotide) (Figure 4 and Table 1). The evolution of the radiochemical purity over time was also checked.

PC-3 cells = assay: Cellular efflux of internalized radioactivity from PC-3 cells; format: cell-based
Protocol: For in vitro experiments, PC-3 cells were cultured in DMEM/F12 and seeded in 6-well plates at a density of 10^6 cells per well 18 h before carrying out the experiments and incubated overnight with complete medium.
Three minutes before the end of the incubation time, internalization was stopped by removing medium and washing cells with ice-cold PBS. The membrane-bound fraction was removed by rinsing cells with 2 mL acetate buffer (pH = 5; 20 mM) for 2 min and cells were then rinsed ice-cold PBS. Next, 2 mL of complete medium was then added to each well, and PC-3 cells were incubated at 37 °C for 5, 15, 30 and 45 min. At each time point, efflux was stopped by removing medium and cells were rinsed twice with ice-cold PBS. Finally, the cells were treated with 1M NaOH and the radioactivity was measured using a gamma counter.

PC-3 = conditions: other kit formulation without scavenger and bulking agent; cited from earlier work
From the text: Another kit formulation of RM2 has been developed but without a scavenger and a bulking agent for lyophilization. […] Therefore, our innovative formulation provides longer stability at higher temperature and higher uptake in GRP-R-expressing PC-3 cells.

[2] = Lipophilicity, water-octanol partition/distribution coefficient method; format: physicochemical; conditions: 1-octanol/phosphate buffered saline; shake-flask 1-octanol/PBS pH 7.4 (500 µL each), 3.7 MBq, stirred 5 min at room temperature, centrifuged, gamma counter, decay-corrected; three experiments in triplicate, mean ± SD
Protocol: The lipophilicity of the [^68Ga]Ga-RM2 was assessed by the water-octanol partition/distribution coefficient method. In a centrifuge tube 500 µL of 1-octanol was added to 500 µL of phosphate buffered saline (pH 7.4) containing the radiolabeled peptide (3.7 MBq; ≈10 µL). After equilibrium, the solution was vigorously stirred for 5 min at room temperature and subsequently centrifuged (4000 rpm, 3 min) to yield two immiscible layers. Aliquots of 100 µL were taken from each layer and the radioactivity in the samples was determined by a gamma counter (Gamma Wizard2 Counter 2480; Perkin Elmer, Villebon sur Yvette, France; acquisition time of one minute, energy window centered on the peak of 511 keV). The Log D7.4 was determined by the Log ratio (cpm (counts per minute) organic phase/cpm aqueous phase). The cpm values were decay-corrected. Experiments were performed three times in triplicates.

GRP-R = target: T1, GRP-R (Homo sapiens, UniProt P30550); assay: Intracellular calcium mobilization assay in PC-3 cells; format: cell-based; conditions: fluo-8AM, 10^-11 M to 10^-5 M, room temperature, pH 7.4
T1 construct: higher uptake in GRP-R-expressing PC-3 cells; endogenous in cells; host or cells: PC-3 cells
T1 sequence (P30550 whole entry): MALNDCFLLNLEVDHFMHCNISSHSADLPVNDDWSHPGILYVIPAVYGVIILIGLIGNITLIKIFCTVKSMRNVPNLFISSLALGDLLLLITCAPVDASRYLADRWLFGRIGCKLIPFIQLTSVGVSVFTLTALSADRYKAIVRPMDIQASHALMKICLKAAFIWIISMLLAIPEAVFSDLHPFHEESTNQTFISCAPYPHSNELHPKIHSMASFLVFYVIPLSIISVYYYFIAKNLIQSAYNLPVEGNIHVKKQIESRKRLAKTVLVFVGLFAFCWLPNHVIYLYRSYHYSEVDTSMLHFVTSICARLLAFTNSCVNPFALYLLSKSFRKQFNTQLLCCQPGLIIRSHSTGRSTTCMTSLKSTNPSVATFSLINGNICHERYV
Protocol: For calcium imaging assays, PC-3 cells were cultured as previously described. The day before the experimentation, cells were grown on 15 mm Thermanox® glass slides (Thermofischer, Waltham, MA, USA,) in 6-wells plates at the density of 5.10^5 cells in 500 µL culture medium. Glass slides were individually loaded for 30 min in dark into 500 µL loading solution containing 10 µL fluo-8AM, 10 µL pluronic acid, 50 µL probenecid and 430 µL DMEM/F12 medium. […] A 10-min delay was applied to remove extracellular fluo-8AM and to enable fluo-8AM intracellular hydrolysis. Growing concentrations (10^−11 M to 10^−5 M) of [^natGa]Ga-RM2 were added via a rapid perfusion system.

| Compound | Stability in vehicle (radiochemical purity over time) [1] | Efflux of the internalized activity (PC-3 cells; 30 min internalization at 37 °C, acid wash, then 5 min at 37 °C in complete medium) [%] | Efflux (%) (PC-3 cells; 45 min post-internalization at 37 °C) | Specific uptake in PC-3 (% of cell-associated radioactivity) (PC-3) [%] | logD [2] | Intracellular calcium mobilization (ΔF/F) (GRP-R) |
| --- | --- | --- | --- | --- | --- | --- |
| CC(C)C[C@H](NC(=O)C[C@H](O)[C@H](CC(C)C)NC(=O)[C@H](Cc1c[nH]cn1)NC(=O)CNC(=O)[C@@H](NC(=O)[C@H](C)NC(=O)[C@H](Cc1c[nH]c2ccccc12)NC(=O)[C@H](CCC(N)=O)NC(=O)[C@@H](Cc1ccccc1)NC(=O)CN1CCC(NC(=O)CN2CCN(CC(=O)O)CCN(CC(=O)O)CCN(CC(=O)O)CC2)CC1)C(C)C)C(N)=O [[^68Ga]Ga-RM2, metal not drawn] | stable in vehicle up to 3 h | 64.3 ± 6.5 | 70.8 ± 11.1 | 5 | -2.54 ± 0.04 | – |
| bombesin | – | – | – | – | – | effectively induced calcium mobilization in a dose-dependent manner |
